The values that follow come from patent US7479277B2, “Method for reducing intraocular pressure using integrin-linked kinase inhibitor” (Wisconsin Alumni Research Foundation, priority 2005, dated 2009).

SMILES strings stand for the structures.

The test system of this experiment is cultured human trabecular meshwork (HTM) cells. The experiment can be described thus: HTM cell spreading on fibronectin III7-10 coated coverslips, immunofluorescence microscopy. The class given is cell-based. The protocol: A cultured human trabecular meshwork (HTM) diploid cell strain obtained from trabecular meshwork explants was serum-starved for twenty-four hours and then plated on 12 mm round glass coverslips (Bellco Glass, Inc.; Vineland, N.J.) coated with III7-10 domains of fibronectin (RGD cell-binding domain; 236 nM) for three hours at 37° C., 95% humidity, 5% CO2, ambient air. The cells were exposed to either DMSO (control) or an ILK inhibitor with or without 472 nM of the Hep II domain. Following incubation, cells were fixed for immunofluorescence microscopy by methods known to a skilled artisan.
HTM cells were examined by immunofluorescence microscopy using anti-vinculin (1:3000; Sigma-Aldrich; St. Louis, Mo.), anti-ILK (1:1000; Upstate Group, LLC; Charlottesville, Va.), anti-talin (1:1000; Chemicon; Temecula, Calif.), anti-paxillin (1:1000; BD Biosciences; San Jose, Calif.) or anti-FAK (1:1000; BD Biosciences) antibodies to reveal actin stress fibers and focal adhesions. […] Cell images were acquired with a Zeiss AxioCam HRm camera mounted on a Zeiss Axiophan 2 Imaging fluorescence microscope together with AxioVision v.3.1 software. The percentage of spread cells was determined by counting polygonal cells containing stress fibers (spread cells) versus rounded cells lacking stress fibers (non-spread cells) from eight to twelve fields.

On to `O=c1cc(N2CCOCC2)oc2c(-c3ccccc3)cccc12` [LY29400], for which the “percentage of spread cells” value (LY29400 25 μM added to ILK inhibitor plus soluble Hep II domain 472 nM, p<0.008) was found to be 28% and the “percentage of spread cells” value (administered alone, compared to control cells, p<0.2) is 35%.
